Assay results reported in ChEMBL document CHEMBL3638788, “Benzoxazines, benzothiazines, and related compounds having NOS inhibitory activity” (2013).

Assays:
[1] = molecular target: Nitric oxide synthase, inducible (Homo sapiens, UniProt P35228); experiment: Enzyme Assay: Recombinant human inducible NOS (iNOS) was produced in Baculovirus-infected Sf9 cells (ALEXIS). In a radiometric method, NO synthase activity was determined by measuring the conversion of [3H]L-arginine to [3H]L-citrulline. To measure iNOS, 10 uL of enzyme was added to 100 uL of 100 mM HEPES, pH=7.4, containing 1 mM CaCl2, 1 mM EDTA, 1 mM dithiothreitol, 1 uM FMN, 1 uM FAD, 10 uM tetrahydrobiopterin, 120 uM NADPH, and 100 nM CaM. To measure enzyme inhibition, a 15 uL solution of a test substance was added to the enzyme assay solution, followed by a pre-incubation time of 15 min at RT. The reaction was initiated by addition of 20 uL L-arginine containing 0.25 uCi of [3H] arginine/mL and 24 uM L-arginine. The total volume of the reaction mixture was 150 uL in every well.
Nitric oxide synthase, inducible, sequence (P35228 whole entry): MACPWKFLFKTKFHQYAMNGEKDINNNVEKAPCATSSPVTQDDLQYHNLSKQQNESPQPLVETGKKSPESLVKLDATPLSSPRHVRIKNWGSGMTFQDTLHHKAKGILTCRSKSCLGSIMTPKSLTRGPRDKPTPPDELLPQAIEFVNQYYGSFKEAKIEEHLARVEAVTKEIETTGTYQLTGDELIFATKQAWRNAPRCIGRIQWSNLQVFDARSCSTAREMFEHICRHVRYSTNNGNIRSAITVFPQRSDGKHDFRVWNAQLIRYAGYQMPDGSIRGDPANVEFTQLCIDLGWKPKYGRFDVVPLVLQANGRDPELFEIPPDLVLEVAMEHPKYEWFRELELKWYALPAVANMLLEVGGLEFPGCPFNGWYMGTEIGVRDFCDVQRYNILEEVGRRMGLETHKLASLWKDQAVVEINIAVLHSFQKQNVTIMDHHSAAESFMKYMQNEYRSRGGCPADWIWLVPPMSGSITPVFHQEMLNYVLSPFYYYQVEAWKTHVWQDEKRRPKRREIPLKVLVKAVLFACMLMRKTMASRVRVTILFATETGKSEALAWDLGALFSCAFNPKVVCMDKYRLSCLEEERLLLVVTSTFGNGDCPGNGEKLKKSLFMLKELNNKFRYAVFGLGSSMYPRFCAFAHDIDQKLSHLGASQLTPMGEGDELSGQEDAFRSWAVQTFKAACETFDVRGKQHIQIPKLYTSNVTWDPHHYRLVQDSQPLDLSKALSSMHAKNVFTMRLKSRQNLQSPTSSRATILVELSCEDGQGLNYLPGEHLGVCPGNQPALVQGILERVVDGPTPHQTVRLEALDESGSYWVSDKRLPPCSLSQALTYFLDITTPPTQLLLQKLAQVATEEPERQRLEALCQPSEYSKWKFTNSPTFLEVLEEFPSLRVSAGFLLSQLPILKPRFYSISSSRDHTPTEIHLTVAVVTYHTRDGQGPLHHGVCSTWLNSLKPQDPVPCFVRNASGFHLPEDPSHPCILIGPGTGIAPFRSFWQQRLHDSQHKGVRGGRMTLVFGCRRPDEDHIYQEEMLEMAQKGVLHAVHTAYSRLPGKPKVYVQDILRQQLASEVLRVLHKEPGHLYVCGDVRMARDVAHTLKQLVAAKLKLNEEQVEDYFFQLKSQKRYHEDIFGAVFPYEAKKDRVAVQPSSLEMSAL

[2] = molecular target: Nitric oxide synthase 1 (Homo sapiens, UniProt P29475); experiment: (§1) Enzyme Assay: Primary stock solutions of test compounds at a concentration of 6 mM were prepared from the 2 to 5 mg powder. The primary stock solutions of each test compound were prepared freshly in distilled water on the day of study to obtain a final concentration of 6 mM. For determination of IC50 values, 12 test compound concent rations were prepared as 3-fold serial dilutions. Concentration range of test compound utilized for nNOS were 0.001 to 300 μM and for eNOS were 0.003 to 10 00 μM. The vehicle of the test compound or inhibitor was used as blank control. For non-specific activity, 100 μM L-NMMA was used. Runs using the IC50 concentration of L-NAME were done in parallel as controls. All incubations are performed in duplicate.
Nitric oxide synthase 1, sequence (P29475 whole entry): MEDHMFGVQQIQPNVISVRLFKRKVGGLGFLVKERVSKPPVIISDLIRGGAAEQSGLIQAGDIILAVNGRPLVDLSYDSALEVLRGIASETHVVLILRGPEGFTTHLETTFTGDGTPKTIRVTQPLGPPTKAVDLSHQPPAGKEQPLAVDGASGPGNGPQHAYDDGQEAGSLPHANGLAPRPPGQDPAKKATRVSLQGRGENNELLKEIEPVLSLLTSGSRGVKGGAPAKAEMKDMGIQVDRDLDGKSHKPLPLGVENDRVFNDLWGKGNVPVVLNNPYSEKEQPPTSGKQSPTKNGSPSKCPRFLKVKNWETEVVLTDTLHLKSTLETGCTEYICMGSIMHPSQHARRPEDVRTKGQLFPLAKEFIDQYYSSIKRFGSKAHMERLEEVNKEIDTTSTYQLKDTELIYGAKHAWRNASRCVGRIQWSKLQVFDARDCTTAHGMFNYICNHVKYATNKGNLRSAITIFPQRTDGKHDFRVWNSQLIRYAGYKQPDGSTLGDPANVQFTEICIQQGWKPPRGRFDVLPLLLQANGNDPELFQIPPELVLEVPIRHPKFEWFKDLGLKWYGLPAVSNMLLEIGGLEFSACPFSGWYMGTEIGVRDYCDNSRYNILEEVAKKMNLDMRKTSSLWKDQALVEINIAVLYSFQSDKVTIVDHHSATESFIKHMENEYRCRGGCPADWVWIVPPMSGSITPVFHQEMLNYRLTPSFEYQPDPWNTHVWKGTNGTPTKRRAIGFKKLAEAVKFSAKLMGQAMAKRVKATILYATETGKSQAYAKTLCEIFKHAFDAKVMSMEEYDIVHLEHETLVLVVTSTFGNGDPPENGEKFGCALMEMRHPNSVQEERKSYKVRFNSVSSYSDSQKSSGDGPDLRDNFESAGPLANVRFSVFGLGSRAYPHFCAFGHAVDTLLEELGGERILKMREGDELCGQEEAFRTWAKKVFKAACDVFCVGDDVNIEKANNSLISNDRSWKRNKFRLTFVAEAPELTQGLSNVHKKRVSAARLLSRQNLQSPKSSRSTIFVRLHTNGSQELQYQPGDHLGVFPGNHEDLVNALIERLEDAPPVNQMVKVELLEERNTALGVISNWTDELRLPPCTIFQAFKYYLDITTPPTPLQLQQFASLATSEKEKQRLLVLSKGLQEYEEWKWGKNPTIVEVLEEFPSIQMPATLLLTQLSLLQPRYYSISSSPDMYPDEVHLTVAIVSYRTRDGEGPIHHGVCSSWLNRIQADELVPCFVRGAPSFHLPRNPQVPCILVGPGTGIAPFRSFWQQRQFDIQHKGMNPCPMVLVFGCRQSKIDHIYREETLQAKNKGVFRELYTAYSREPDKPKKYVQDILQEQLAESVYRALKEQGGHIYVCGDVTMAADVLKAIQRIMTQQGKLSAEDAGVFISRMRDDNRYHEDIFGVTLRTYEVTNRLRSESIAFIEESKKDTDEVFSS

[3] = molecular target: T1, Nitric oxide synthase 3 (Homo sapiens, UniProt P29474); experiment: as §1
T1 sequence (P29474 whole entry): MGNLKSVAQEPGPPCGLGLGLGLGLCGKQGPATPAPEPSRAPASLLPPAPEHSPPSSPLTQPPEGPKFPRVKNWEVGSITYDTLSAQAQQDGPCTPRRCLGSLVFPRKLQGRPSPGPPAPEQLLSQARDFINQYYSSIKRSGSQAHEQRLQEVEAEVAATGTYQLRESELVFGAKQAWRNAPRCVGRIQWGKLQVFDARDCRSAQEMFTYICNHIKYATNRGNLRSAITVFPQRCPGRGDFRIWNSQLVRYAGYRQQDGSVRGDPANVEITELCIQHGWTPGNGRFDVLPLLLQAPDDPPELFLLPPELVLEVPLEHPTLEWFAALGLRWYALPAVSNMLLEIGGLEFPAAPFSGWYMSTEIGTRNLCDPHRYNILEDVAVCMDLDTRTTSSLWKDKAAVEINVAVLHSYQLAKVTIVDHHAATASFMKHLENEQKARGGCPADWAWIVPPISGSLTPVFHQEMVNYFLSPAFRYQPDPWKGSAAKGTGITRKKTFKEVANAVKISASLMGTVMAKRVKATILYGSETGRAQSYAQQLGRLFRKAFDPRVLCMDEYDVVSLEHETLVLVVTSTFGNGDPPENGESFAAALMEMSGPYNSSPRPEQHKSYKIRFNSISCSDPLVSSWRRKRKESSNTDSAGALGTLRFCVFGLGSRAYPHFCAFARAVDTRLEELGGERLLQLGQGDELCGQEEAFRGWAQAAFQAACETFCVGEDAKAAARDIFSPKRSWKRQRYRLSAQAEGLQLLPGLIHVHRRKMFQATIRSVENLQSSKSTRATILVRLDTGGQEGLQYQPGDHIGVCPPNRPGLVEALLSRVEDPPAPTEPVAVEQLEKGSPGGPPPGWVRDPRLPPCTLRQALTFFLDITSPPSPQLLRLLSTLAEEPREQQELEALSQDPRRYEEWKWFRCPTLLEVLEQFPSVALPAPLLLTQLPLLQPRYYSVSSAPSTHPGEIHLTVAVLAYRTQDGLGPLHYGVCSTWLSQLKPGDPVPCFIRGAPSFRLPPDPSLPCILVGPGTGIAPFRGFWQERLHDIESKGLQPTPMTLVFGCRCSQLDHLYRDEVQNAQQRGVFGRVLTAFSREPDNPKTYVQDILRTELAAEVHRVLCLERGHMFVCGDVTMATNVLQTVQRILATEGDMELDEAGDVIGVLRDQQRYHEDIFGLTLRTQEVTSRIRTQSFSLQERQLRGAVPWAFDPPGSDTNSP

Structure (SMILES)	IC50 [1] [µM]	IC50 [2] [µM]	IC50 [3] [µM]
CN1CCCC1CCN1C(=O)COc2cc(NC(=N)c3cccs3)ccc21 (stereo not given)	> 100	2.08	87.2
CN1CCCC1CCN1CCOc2cc(/N=C(\N)c3cccs3)ccc21 (stereo not given)	10.6	0.43	
